ChEMBL document CHEMBL4613209, “Quinolone hybrids and their anti-cancer activities: An overview” (Eur J Med Chem, 2019)
pIC50: −log10 of the molar value.

Tests used:
Format in all cases: functional, cell-based
SMMC-7721 [1] = test: Antiproliferative activity against human SMMC7721 cells after 24 to 72 hrs by MTT assay
HL-60 [2] = test: Antiproliferative activity against human HL60 cells after 24 to 72 hrs by MTT assay
L1210 [3] = test: Antiproliferative activity against mouse L1210 cells after 24 to 72 hrs by MTT assay
Hep 3B2 [4] = test: Antiproliferative activity against human Hep3B cells after 24 to 72 hrs by MTT assay
SMMC-7721 [5] = test: Cytotoxicity against human SMMC7721 cells assessed as reduction in cell viability by MTT assay
L1210 [6] = test: Cytotoxicity against mouse L1210 cells assessed as reduction in cell viability by MTT assay
HL-60 [7] = test: Cytotoxicity against human HL60 cells assessed as reduction in cell viability by MTT assay
CAPAN-1 = test: Cytotoxicity against human Capan1 cells assessed as reduction in cell viability by MTT assay
Hep 3B2 [8] = test: Cytotoxicity against human Hep3B cells assessed as reduction in cell viability by MTT assay

Compound	pIC50 (SMMC-7721 [1])	pIC50 (HL-60 [2])	pIC50 (L1210 [3])	pIC50 (Hep 3B2 [4])	pIC50 (SMMC-7721 [5])	pIC50 (L1210 [6])	pIC50 (HL-60 [7])	pIC50 (CAPAN-1)	pIC50 (Hep 3B2 [8])
CCn1cc(C(=O)N/N=C/c2ccccc2OC)c(=O)c2cc(F)c(N3CCNCC3)cc21	4.28 to 5.85	4.28 to 5.85	4.28 to 5.85	4.28 to 5.85	–	–	–	–	–
CC1COc2c(N3CCN(C)CC3)c(F)cc3c(=O)c(-c4nnc(N/N=C/c5ccccc5)[nH]4)cn1c23 (stereo not drawn)	4.28 to 5.85	4.28 to 5.85	4.28 to 5.85	4.28 to 5.85	–	–	–	–	–
CCn1cc(C(=O)N/N=C/c2cc(OC)c(OC)c(OC)c2)c(=O)c2cc(F)c(N3CCNCC3)cc21	4.28 to 5.85	4.28 to 5.85	4.28 to 5.85	4.28 to 5.85	–	–	–	–	–
CC1COc2c(N3CCN(C)CC3)c(F)cc3c(=O)c(-c4nnc(N/N=C/c5ccc(Cl)cc5)[nH]4)cn1c23 (stereo not drawn)	4.28 to 5.85	4.28 to 5.85	4.28 to 5.85	4.28 to 5.85	–	–	–	–	–
CCn1cc(C(=O)N/N=C/c2ccc([N+](=O)[O-])cc2)c(=O)c2cc(F)c(N3CCNCC3)cc21	4.28 to 5.85	4.28 to 5.85	4.28 to 5.85	4.28 to 5.85	–	–	–	–	–
CC1COc2c(N3CCN(C)CC3)c(F)cc3c(=O)c(-c4nnc(N/N=C/c5ccc([N+](=O)[O-])c6c5OCO6)[nH]4)cn1c23 (stereo not drawn)	4.28 to 5.85	4.28 to 5.85	4.28 to 5.85	4.28 to 5.85	–	–	–	–	–
CC1COc2c(N3CCN(C)CC3)c(F)cc3c(=O)c(-c4nc5scc(-c6ccc([N+](=O)[O-])cc6)n5n4)cn1c23 (stereo not drawn)	–	–	–	–	4.25 to 5.44	4.25 to 5.44	4.25 to 5.44	4.25 to 5.44	4.25 to 5.44
COc1ccc(-c2csc3nc(-c4cn5c6c(c(N7CCN(C)CC7)c(F)cc6c4=O)OCC5C)nn23)cc1OC (stereo not drawn)	–	–	–	–	4.27 to 4.45	4.27 to 4.45	4.27 to 4.45	4.27 to 4.45	4.27 to 4.45
COc1cc(/C=N/Nc2nnc(-c3cn4c5c(c(N6CCN(C)CC6)c(F)cc5c3=O)OCC4C)[nH]2)cc(OC)c1OC (stereo not drawn)	4.28 to 5.85	4.28 to 5.85	4.28 to 5.85	4.28 to 5.85	–	–	–	–	–
CN1CCN(c2cc3c(cc2F)c(=O)c(-c2nc4scc(-c5ccccc5)n4n2)cn3C2CC2)CC1	–	–	–	–	4.25 to 5.44	4.25 to 5.44	4.25 to 5.44	4.25 to 5.44	4.25 to 5.44
COc1ccc(/C=N/Nc2nnc(-c3cn4c5c(c(N6CCN(C)CC6)c(F)cc5c3=O)OCC4C)[nH]2)cc1 (stereo not drawn)	4.28 to 5.85	4.28 to 5.85	4.28 to 5.85	4.28 to 5.85	–	–	–	–	–
CCn1cc(-c2nnc(SCc3nnc(-c4ccccc4)o3)[nH]2)c(=O)c2cc(F)c(N3CCN(C)CC3)cc21	–	–	–	–	4.45 to 5.42	4.45 to 5.42	4.45 to 5.42	4.45 to 5.42	4.45 to 5.42
CC1COc2c(N3CCN(C)CC3)c(F)cc3c(=O)c(-c4nnc(N/N=C/c5ccc(F)cc5)[nH]4)cn1c23 (stereo not drawn)	4.28 to 5.85	4.28 to 5.85	4.28 to 5.85	4.28 to 5.85	–	–	–	–	–
CCn1cc(-c2nnc(SCc3nnc(-c4ccc(Cl)cc4)o3)[nH]2)c(=O)c2cc(F)c(N3CCN(C)CC3)cc21	–	–	–	–	4.45 to 5.42	4.45 to 5.42	4.45 to 5.42	4.45 to 5.42	4.45 to 5.42
CCn1cc(-c2nc3scc(-c4ccc(O)cc4)n3n2)c(=O)c2cc(F)c(N3CCN(C)CC3)cc21	–	–	–	–	4.25 to 5.44	4.25 to 5.44	4.25 to 5.44	4.25 to 5.44	4.25 to 5.44
CCn1cc(-c2nnc(SCc3nnc(-c4ccc(F)cc4)o3)[nH]2)c(=O)c2cc(F)c(N3CCN(C)CC3)cc21	–	–	–	–	4.45 to 5.42	4.45 to 5.42	4.45 to 5.42	4.45 to 5.42	4.45 to 5.42
CC1COc2c(N3CCN(C)CC3)c(F)cc3c(=O)c(-c4nc5scc(-c6ccc(F)cc6)n5n4)cn1c23 (stereo not drawn)	–	–	–	–	4.25 to 5.44	4.25 to 5.44	4.25 to 5.44	4.25 to 5.44	4.25 to 5.44
CC1COc2c(N3CCN(C)CC3)c(F)cc3c(=O)c(-c4nc5scc(-c6ccc(O)cc6)n5n4)cn1c23 (stereo not drawn)	–	–	–	–	4.25 to 5.44	4.25 to 5.44	4.25 to 5.44	4.25 to 5.44	4.25 to 5.44
Cc1ccc(-c2csc3nc(-c4cn5c6c(c(N7CCN(C)CC7)c(F)cc6c4=O)OCC5C)nn23)cc1 (stereo not drawn)	–	–	–	–	4.25 to 5.44	4.25 to 5.44	4.25 to 5.44	4.25 to 5.44	4.25 to 5.44
CC1COc2c(N3CCN(C)CC3)c(F)cc3c(=O)c(-c4nc5scc(-c6ccccc6)n5n4)cn1c23 (stereo not drawn)	–	–	–	–	4.25 to 5.44	4.25 to 5.44	4.25 to 5.44	4.25 to 5.44	4.25 to 5.44
CCn1cc(-c2nc3scc(-c4ccc(F)cc4)n3n2)c(=O)c2cc(F)c(N3CCN(C)CC3)cc21	–	–	–	–	4.25 to 5.44	4.25 to 5.44	4.25 to 5.44	4.25 to 5.44	4.25 to 5.44
CCn1cc(-c2nc(SCc3nnc(-c4cc(OC)c(OC)c(OC)c4)o3)n(CN(C)C)n2)c(=O)c2cc(F)c(N3CCN(C)CC3)cc21	–	–	–	–	4.61 to 5.82	4.61 to 5.82	4.61 to 5.82	4.61 to 5.82	4.61 to 5.82
CCn1cc(-c2nc3scc(-c4ccc(Cl)cc4)n3n2)c(=O)c2cc(F)c(N3CCN(C)CC3)cc21	–	–	–	–	4.25 to 5.44	4.25 to 5.44	4.25 to 5.44	4.25 to 5.44	4.25 to 5.44
CCn1cc(-c2nc(SCc3nnc(-c4ccc(OC)cc4)o3)n(CN(C)C)n2)c(=O)c2cc(F)c(N3CCN(C)CC3)cc21	–	–	–	–	4.61 to 5.82	4.61 to 5.82	4.61 to 5.82	4.61 to 5.82	4.61 to 5.82
CCn1cc(-c2nc3scc(-c4ccc(OC)c(O)c4)n3n2)c(=O)c2cc(F)c(N3CCN(C)CC3)cc21	–	–	–	–	4.25 to 5.44	4.25 to 5.44	4.25 to 5.44	4.25 to 5.44	4.25 to 5.44
CCn1cc(-c2nc3scc(-c4ccccc4O)n3n2)c(=O)c2cc(F)c(N3CCN(C)CC3)cc21	–	–	–	–	4.25 to 5.44	4.25 to 5.44	4.25 to 5.44	4.25 to 5.44	4.25 to 5.44
CN1CCN(c2cc3c(cc2F)c(=O)c(-c2nc4scc(-c5ccc(F)cc5)n4n2)cn3C2CC2)CC1	–	–	–	–	4.25 to 5.44	4.25 to 5.44	4.25 to 5.44	4.25 to 5.44	4.25 to 5.44

Second part, led by results:

pIC50 (SMMC-7721 [1])	pIC50 (HL-60 [2])	pIC50 (L1210 [3])	Compound	pIC50 (Hep 3B2 [4])	pIC50 (SMMC-7721 [5])	pIC50 (L1210 [6])	pIC50 (HL-60 [7])	pIC50 (CAPAN-1)	pIC50 (Hep 3B2 [8])
4.28 to 5.85	4.28 to 5.85	4.28 to 5.85	CCn1cc(-c2nnc(SCC(=O)N/N=C/c3ccc(O)c(OC)c3)o2)c(=O)c2cc(F)c(N3CCN(C)CC3)cc21	4.28 to 5.85	–	–	–	–	–
4.28 to 5.85	4.28 to 5.85	4.28 to 5.85	CCn1cc(-c2nnc(SCC(=O)N/N=C/c3ccc(C)cc3)o2)c(=O)c2cc(F)c(N3CCN(C)CC3)cc21	4.28 to 5.85	–	–	–	–	–
4.28 to 5.85	4.28 to 5.85	4.28 to 5.85	CC1COc2c(N3CCN(C)CC3)c(F)cc3c(=O)c(-c4nnc(SCC(=O)N/N=C/c5ccc(Cl)cc5)[nH]4)cn1c23 (stereo not drawn)	4.28 to 5.85	–	–	–	–	–
4.28 to 5.85	4.28 to 5.85	4.28 to 5.85	CCn1cc(-c2nnc(SCC(=O)N/N=C/c3ccc([N+](=O)[O-])cc3)o2)c(=O)c2cc(F)c(N3CCN(C)CC3)cc21	4.28 to 5.85	–	–	–	–	–
5.85	5.38	5.80	CC1COc2c(N3CCN(C)CC3)c(F)cc3c(=O)c(-c4nnc(N/N=C/c5ccc(C(=O)O)cc5)[nH]4)cn1c23 (stereo not drawn)	4.28 to 5.85	–	–	–	–	–
4.28 to 5.85	4.28 to 5.85	4.28 to 5.85	CCn1cc(-c2nnc(SCC(=O)N/N=C/c3ccc4c(c3)OCO4)o2)c(=O)c2cc(F)c(N3CCN(C)CC3)cc21	4.28 to 5.85	–	–	–	–	–
4.28 to 5.85	4.28 to 5.85	4.28 to 5.85	CCn1cc(-c2nnc(SCC(=O)N/N=C/c3ccc(Cl)cc3)o2)c(=O)c2cc(F)c(N3CCN(C)CC3)cc21	4.28 to 5.85	–	–	–	–	–
4.28 to 5.85	4.28 to 5.85	4.28 to 5.85	CCn1cc(C(=O)N/N=C/c2ccc(O)c(OC)c2)c(=O)c2cc(F)c(N3CCNCC3)cc21	4.28 to 5.85	–	–	–	–	–
4.28 to 5.85	4.28 to 5.85	4.28 to 5.85	CCn1cc(-c2nnc(SCC(=O)N/N=C/c3ccccc3)o2)c(=O)c2cc(F)c(N3CCN(C)CC3)cc21	4.28 to 5.85	–	–	–	–	–
4.28 to 5.85	4.28 to 5.85	4.28 to 5.85	CCn1cc(-c2nnc(SCC(=O)N/N=C/c3ccc(F)cc3)o2)c(=O)c2cc(F)c(N3CCN(C)CC3)cc21	4.28 to 5.85	–	–	–	–	–
4.28 to 5.85	4.28 to 5.85	4.28 to 5.85	CC1COc2c(N3CCN(C)CC3)c(F)cc3c(=O)c(-c4nnc(SCC(=O)N/N=C/c5ccc(C(=O)O)cc5)[nH]4)cn1c23 (stereo not drawn)	4.28 to 5.85	–	–	–	–	–
4.28 to 5.85	4.28 to 5.85	4.28 to 5.85	CCn1cc(-c2nnc(SCC(=O)N/N=C/c3cc(OC)c(OC)c(OC)c3)o2)c(=O)c2cc(F)c(N3CCN(C)CC3)cc21	4.28 to 5.85	–	–	–	–	–
4.28 to 5.85	4.28 to 5.85	4.28 to 5.85	CCn1cc(C(=O)N/N=C/c2ccc(OC)cc2)c(=O)c2cc(F)c(N3CCNCC3)cc21	4.28 to 5.85	–	–	–	–	–
4.28 to 5.85	4.28 to 5.85	4.28 to 5.85	CCn1cc(-c2nnc(SCC(=O)N/N=C/c3cccc([N+](=O)[O-])c3)o2)c(=O)c2cc(F)c(N3CCN(C)CC3)cc21	4.28 to 5.85	–	–	–	–	–
4.28 to 5.85	4.28 to 5.85	4.28 to 5.85	CCn1cc(-c2nnc(SCC(=O)N/N=C/c3ccccc3OC)o2)c(=O)c2cc(F)c(N3CCN(C)CC3)cc21	4.28 to 5.85	–	–	–	–	–
4.28 to 5.85	4.28 to 5.85	4.28 to 5.85	CCn1cc(-c2nnc(SCC(=O)N/N=C/c3ccc(C#N)cc3)o2)c(=O)c2cc(F)c(N3CCN(C)CC3)cc21	4.28 to 5.85	–	–	–	–	–
4.28 to 5.85	4.28 to 5.85	4.28 to 5.85	CCn1cc(C(=O)N/N=C/c2ccc3c(c2)OCO3)c(=O)c2cc(F)c(N3CCNCC3)cc21	4.28 to 5.85	–	–	–	–	–
4.28 to 5.85	4.28 to 5.85	4.28 to 5.85	CCn1cc(-c2nnc(SCC(=O)N/N=C/c3ccc(C(=O)O)cc3)o2)c(=O)c2cc(F)c(N3CCN(C)CC3)cc21	4.28 to 5.85	–	–	–	–	–
